Measured values published in US12247011B2, “Selective inhibitors of NLRP3 inflammasome” (NodThera Limited, priority 2017, dated 2025).

What follows are compounds tested on IL-1β release upon NLRP3 activation in peripheral blood mononuclear cells (PBMC) (assay: PBMC IC50 Determination Assay). Settings: Homo sapiens; LPS-primed PBMC, 30 min compound, stimulated with ATP (5 mM) or nigericin (10 μM) for 1 h; IL-1β ELISA; read-out: PBMC IC50.
Assay type: cell-based
Description: PBMC IC50 Determination Assay
The compounds of the present disclosure were tested for their inhibitory activity against IL-1β release upon NLRP3 activation in peripheral blood mononuclear cells (PBMC).
Isolated cells were seeded into the wells of a 96-well plate and incubated for 3 h with lipopolysaccharide (LPS). Following medium exchange, the compounds of the present disclosure were added (a single compound per well) and the cells were incubated for 30 min. Next, the cells were stimulated either with ATP (5 mM) or nigericin (10 μM) for 1 h and the cell culture media from the wells were collected for further analysis.
The release of IL-1β into the media was determined by a quantitative detection of IL-1β in the media using an IL-1β enzyme-linked immunosorbent assay (ELISA) Ready-SET-Go!, eBioscience cat. […] Subsequently, plates were blocked with blocking buffer for 1 h at room temperature (rt) and after washing with a buffer (PBS with 0.05% Tween-20) incubated with protein standard and culture media. […] Plates were washed and incubated with HRP-streptavidin for 30 min at rt and washed again. The signal was developed after addition of 3,3,5,5-tetramethylbenzidine-peroxidase (TMB) until colour appeared and the reaction was stopped by 2 M H2SO4. A microplate spectrophotometer (BioTek) was used to detect signals with 450 nm. The detection range of IL-1β ELISA was 2-150 ng/ml.

Row | SMILES | IC50
1 | CC(C)OC(=O)C(Cc1ncccn1)OC(=O)N[C@H]1CCCC[C@@H]1C (relative stereo) [Compound 129, Propan-2-yl 2-{[(trans-2-methylcyclohexyl)carbamoyl]oxy}-3-(pyrimidin-2-yl)propanoate] | 1000 to 10000 nM
2 | CCOC(=O)COC(=O)Nc1c(F)cccc1F [Compound 2, Ethyl 2-{[(2,6-difluorophenyl)carbamoyl]oxy}acetate] | 1000 to 10000 nM
3 | CCOC(=O)COC(=O)Nc1c(Cl)cccc1Cl [Compound 3, Ethyl 2-{[(2,6-dichlorophenyl)carbamoyl]oxy}acetate] | 100 to 1000 nM
4 | CCOC(=O)COC(=O)Nc1cccc2ccccc12 [Compound 4, Ethyl 2-{[(naphthalen-1-yl)carbamoyl]oxy}acetate] | 1000 to 10000 nM
5 | CCOC(=O)COC(=O)Nc1cccc2c1OC(C)(C)C2 [Compound 5, Ethyl 2-{[(2,2-dimethyl-2,3-dihydro-1-benzofuran-7-yl)carbamoyl]oxy}acetate] | > 10000 nM
6 | CCOC(=O)C(COC)OC(=O)Nc1c2c(cc3c1CCC3)CCC2 (centres unmarked) [Compound 6, Ethyl 2-{[(1,2,3,5,6,7-hexahydro-s-indacen-4-yl)carbamoyl]oxy}-3-methoxypropanoate] | 10 to 100 nM
7 | CCOC(=O)COC(=O)Nc1cc(C(F)(F)F)ccc1F [Compound 7, Ethyl 2-({[2-fluoro-5-(trifluoromethyl)phenyl]carbamoyl}oxy)acetate] | 1000 to 10000 nM
8 | CCOC(=O)COC(=O)Nc1c(C)cccc1C [Compound 8, Ethyl 2-{[(2,6-dimethylphenyl)carbamoyl]oxy}acetate] | 100 to 1000 nM
9 | CCOC(=O)COC(=O)Nc1c(CC)cccc1CC [Compound 9, Ethyl 2-{[(2,6-diethylphenyl)carbamoyl]oxy}acetate] | 100 to 1000 nM
10 | CCOC(=O)COC(=O)Nc1c(C)cccc1Cl [Compound 10] | 1000 to 10000 nM
11 | CCOC(=O)COC(=O)Nc1ccccc1C#N [Compound 11, Ethyl 2-{[(2-cyanophenyl)carbamoyl]oxy}acetate] | 1000 to 10000 nM
12 | CCOC(=O)C(Cc1cccnc1)OC(=O)Nc1c2c(cc3c1CCC3)CCC2 (centres unmarked) [Compound 12, Ethyl 2-{[(1,2,3,5,6,7-hexahydro-s-indacen-4-yl)carbamoyl]oxy}-3-(pyridin-3-yl)propanoate] | 10 to 100 nM
13 | CCOC(=O)COC(=O)Nc1ccccc1C(C)(C)C [Compound 13, Ethyl 2-{[(2-tert-butylphenyl)carbamoyl]oxy}acetate] | 1000 to 10000 nM
14 | CCOC(=O)COC(=O)Nc1c(C)cc(C)cc1C [Compound 14, Ethyl 2-((mesitylcarbamoyl)oxy)acetate] | 1000 to 10000 nM
15 | CCOC(=O)COC(=O)Nc1ccccc1C(C)C [Compound 15, Ethyl 2-(((2-isopropylphenyl)carbamoyl)oxy)acetate] | 1000 to 10000 nM
16 | CCOC(=O)COC(=O)Nc1c(C)cccc1CC [Compound 16, Ethyl 2-(((2-ethyl-6-methylphenyl)carbamoyl)oxy)acetate] | 100 to 1000 nM
17 | CCOC(=O)C(Cc1ccccc1)OC(=O)Nc1c2c(cc3c1CCC3)CCC2 (centres unmarked) [Compound 17, Ethyl 2-(((1,2,3,5,6,7-hexahydro-s-indacen-4-yl)carbamoyl)oxy)-3-phenylpropanoate] | 100 to 1000 nM
18 | CCOC(=O)C(Cc1ccccn1)OC(=O)Nc1c2c(cc3c1CCC3)CCC2 (centres unmarked) [Compound 18, Ethyl 2-(((1,2,3,5,6,7-hexahydro-s-indacen-4-yl)carbamoyl)oxy)-3-(pyridin-2-yl)propanoate] | 100 to 1000 nM
19 | CCOC(=O)[C@@H](C)OC(=O)Nc1c2c(cc3c1CCC3)CCC2 [Compound 19, Ethyl (2R)-2-{[(1,2,3,5,6,7-hexahydro-s-indacen-4-yl)carbamoyl]oxy}propanoate] | 1000 to 10000 nM
20 | CC(C)OC(=O)COC(=O)Nc1c2c(cc3c1CCC3)CCC2 [Compound 20, Propan-2-yl 2-{[(1,2,3,5,6,7-hexahydro-s-indacen-4-yl)carbamoyl]oxy}acetate] | 100 to 1000 nM
21 | CCCOC(=O)COC(=O)Nc1c2c(cc3c1CCC3)CCC2 [Compound 21] | 100 to 1000 nM
22 | O=C(COC(=O)Nc1c2c(cc3c1CCC3)CCC2)OCC1CC1 [Compound 22, Cyclopropylmethyl 2-{[(1,2,3,5,6,7-hexahydro-s-indacen-4-yl)carbamoyl]oxy}acetate] | 100 to 1000 nM

Row | SMILES | IC50
23 | O=C(COC(=O)Nc1c2c(cc3c1CCC3)CCC2)OC1CCC1 [Compound 23, Cyclobutyl 2-{[(1,2,3,5,6,7-hexahydro-s-indacen-4-yl)carbamoyl]oxy}acetate] | 100 to 1000 nM
24 | CC(C)COC(=O)COC(=O)Nc1c2c(cc3c1CCC3)CCC2 [Compound 24, 2-methylpropyl 2-{[(1,2,3,5,6,7-hexahydro-s-indacen-4-yl)carbamoyl]oxy}acetate] | 100 to 1000 nM
25 | CCOC(=O)[C@@H](Cc1ccc(C#N)cc1)OC(=O)Nc1c2c(cc3c1CCC3)CCC2 [Compound 25, Ethyl 3-(4-cyanophenyl)-2-{[(1,2,3,5,6,7-hexahydro-s-indacen-4-yl)carbamoyl]oxy}propanoate] | 100 to 1000 nM
26 | O=C(O)COC(=O)Nc1c2c(cc3c1CCC3)CCC2 [Compound 27, 2-{[(1,2,3,5,6,7-Hexahydro-s-indacen-4-yl)carbamoyl]oxy}acetic acid] | 1000 to 10000 nM
27 | CCOC(=O)COC(=O)Nc1c(CC)cc(C)cc1CC [Compound 28, Ethyl 2-{[(2,6-diethyl-4-methylphenyl)carbamoyl]oxy}acetate] | 1000 to 10000 nM
28 | COC(=O)COC(=O)Nc1c2c(cc3c1CCC3)CCC2 [Compound 29, Methyl 2-{[(1,2,3,5,6,7-hexahydro-s-indacen-4-yl)carbamoyl]oxy}acetate] | 1000 to 10000 nM
29 | CCOC(=O)[C@@H](CCc1ccccc1)OC(=O)Nc1c2c(cc3c1CCC3)CCC2 [Compound 30, Ethyl (2R)-2-{[(1,2,3,5,6,7-hexahydro-s-indacen-4-yl)carbamoyl]oxy}-4-phenylbutanoate] | 100 to 1000 nM
30 | O=C(COC(=O)Nc1c2c(cc3c1CCC3)CCC2)OC1CCCC1 [Compound 32, Cyclopentyl 2-{[(1,2,3,5,6,7-hexahydro-s-indacen-4-yl)carbamoyl]oxy}acetate] | 100 to 1000 nM
31 | CCOC(=O)C(Cn1ccnc1)OC(=O)Nc1c2c(cc3c1CCC3)CCC2 (centres unmarked) [Compound 33, Ethyl 2-{[(1,2,3,5,6,7-hexahydro-s-indacen-4-yl)carbamoyl]oxy}-3-(1H-imidazol-1-yl)propanoate] | 100 to 1000 nM
32 | CCOC(=O)COC(=O)Nc1c(C(C)C)cccc1C(C)C [Compound 34, Ethyl 2-({[2,6-bis(propan-2-yl)phenyl]carbamoyl}oxy)acetate] | 1000 to 10000 nM
33 | CCOC(=O)COC(=O)Nc1cc(C(F)(F)F)ccc1Cl [Compound 35, Ethyl 2-({[2-chloro-5-(trifluoromethyl)phenyl]carbamoyl}oxy)acetate] | > 10000 nM
34 | CCOC(=O)COC(=O)Nc1cc(C)ccc1C [Compound 37, Ethyl 2-{[(2,5-dimethylphenyl)carbamoyl]oxy}acetate] | 100 to 1000 nM
35 | COCC(OC(=O)Nc1c2c(cc3c1CCC3)CCC2)C(=O)O (centres unmarked) [Compound 38, 2-{[(1,2,3,5,6,7-hexahydro-s-indacen-4-yl)carbamoyl]oxy}-3-methoxypropanoic acid] | 1000 to 10000 nM
36 | O=C(COC(=O)Nc1c2c(cc3c1CCC3)CCC2)OC1CC1 [Compound 39, cyclopropyl 2-{[(1,2,3,5,6,7-hexahydro-s-indacen-4-yl)carbamoyl]oxy}acetate] | 1000 to 10000 nM
37 | O=C(Nc1c2c(cc3c1CCC3)CCC2)OC(Cn1cccn1)C(=O)O (centres unmarked) [Compound 40, 2-{[(1,2,3,5,6,7-hexahydro-s-indacen-4-yl)carbamoyl]oxy}-3-(1H-pyrazol-1-yl)propanoic acid] | 100 to 1000 nM
38 | CCOC(=O)[C@@H](Cc1cccc(C#N)c1)OC(=O)Nc1c2c(cc3c1CCC3)CCC2 [Compound 41, Ethyl (2R)-3-(3-cyanophenyl)-2-{[(1,2,3,5,6,7-hexahydro-s-indacen-4-yl)carbamoyl]oxy}propanoate] | 10 to 100 nM
39 | CCOC(=O)C(Cc1cccc(-n2cccn2)c1)OC(=O)Nc1c2c(cc3c1CCC3)CCC2 (centres unmarked) [Compound 42, Ethyl 2-{[(1,2,3,5,6,7-hexahydro-s-indacen-4-yl)carbamoyl]oxy}-3-[3-(1H-pyrazol-1-yl)phenyl]propanoate] | 100 to 1000 nM
40 | CCOC(=O)[C@@H](Cc1cccc(-n2cccn2)c1)OC(=O)Nc1c2c(cc3c1CCC3)CCC2 [Compound 43, Ethyl (2R)-2-{[(1,2,3,5,6,7-hexahydro-s-indacen-4-yl)carbamoyl]oxy}-3-[3-(1H-pyrazol-1-yl)phenyl]propanoate] | 100 to 1000 nM
41 | CCOC(=O)C(Cn1cccn1)OC(=O)Nc1c(F)cccc1F (centres unmarked) [Compound 44] | 100 to 1000 nM
42 | CCOC(=O)C(Cn1cccn1)OC(=O)Nc1ccccc1 (centres unmarked) [Compound 45, Ethyl 2-[(phenylcarbamoyl)oxy]-3-(1H-pyrazol-1-yl)propanoate] | > 10000 nM
43 | CCOC(=O)C(Cn1cccn1)OC(=O)Nc1c(C)cccc1CC (centres unmarked) [Compound 46, Ethyl 2-{[(2-ethyl-6-methylphenyl)carbamoyl]oxy}-3-(1H-pyrazol-1-yl)propanoate] | 100 to 1000 nM
44 | CCOC(=O)C(Cn1cccn1)OC(=O)Nc1c(CC)cccc1CC (centres unmarked) [Compound 48, Ethyl 2-{[(2,6-diethylphenyl)carbamoyl]oxy}-3-(1H-pyrazol-1-yl)propanoate] | 100 to 1000 nM
